Assay results taken from the supplement of paper PMC10307832.

How the values were obtained:
Assay in all cases: relative viability (nuclei count vs DMSO), 5 days (fraction); higher = more cells survive
[1] = tested on: 201T
Method in brief: (§1)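 Cells from lung cancer lines were seeded into 1536-well plates and, one day later, dosed by pin tool. Treatments were either a single drug or a fixed dose of an anchor drug with five library-drug doses (not always all listed) in √10 steps. After 5 days, nuclei were stained in a one-step fixation (final 0.05% Triton X-100, 1% formaldehyde, 1 ug/ml Hoechst) and counted on 4× images, and relative viability is the treated-to-vehicle nuclei ratio, as the median of duplicate plates.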

[2] = tested on: ABC-1
Method in brief: as §1

[3] = tested on: BEN
Method in brief: as §1

[4] = tested on: CAL-12T
Method in brief: as §1

[5] = tested on: COR-L 105
Method in brief: as §1

[6] = tested on: EKVX
Method in brief: as §1

[7] = tested on: EMC-BAC-2
Method in brief: as §1

[8] = tested on: HCC-15
Method in brief: as §1

[9] = tested on: HCC-44
Method in brief: as §1

[10] = tested on: LK-2
Method in brief: as §1

[11] = tested on: LU99A
Method in brief: as §1

[12] = tested on: NCI-H1563
Method in brief: as §1

[13] = tested on: NCI-H1651
Method in brief: as §1

[14] = tested on: NCI-H2023
Method in brief: as §1

[15] = tested on: NCI-H322M
Method in brief: as §1

[16] = tested on: NCI-H358
Method in brief: as §1

[17] = tested on: NCI-H460
Method in brief: as §1

[18] = tested on: NCI-H520
Method in brief: as §1

[19] = tested on: NCI-H727
Method in brief: as §1

[20] = tested on: NCI-H838
Method in brief: as §1

[21] = tested on: PC-3 [JPC-3]
Method in brief: as §1

CCNC(=O)c1noc(-c2cc(C(C)C)c(O)cc2O)c1-c1ccc(CN2CCOCC2)cc1 [Luminespib] + Cc1nc(NC(=O)N2CCC[C@H]2C(N)=O)sc1-c1ccnc(C(C)(C)C(F)(F)F)c1 [Alpelisib] (partner 2 µM)
relative viability ([1]; first compound 0.002 µM): 0.965
relative viability ([1]; first compound 0.006325 µM): 1.01
relative viability ([1]; first compound 0.02 µM): 0.96
relative viability ([1]; first compound 0.06325 µM): 1.04
relative viability ([1]; first compound 0.2 µM): 1.03
relative viability ([2]; first compound 0.002 µM): 0.976
relative viability ([2]; first compound 0.006325 µM): 0.95
relative viability ([2]; first compound 0.02 µM): 1.15
relative viability ([2]; first compound 0.06325 µM): 0.392
relative viability ([2]; first compound 0.2 µM): 0.3
relative viability ([3]; first compound 0.002 µM): 1.1
relative viability ([3]; first compound 0.006325 µM): 0.964
relative viability ([3]; first compound 0.02 µM): 0.393
relative viability ([3]; first compound 0.06325 µM): 0.709
relative viability ([3]; first compound 0.2 µM): 0.224
relative viability ([4]; first compound 0.002 µM): 1.21
relative viability ([4]; first compound 0.006325 µM): 1.25
relative viability ([4]; first compound 0.02 µM): 1.02
relative viability ([4]; first compound 0.06325 µM): 0.192
relative viability ([4]; first compound 0.2 µM): 0.0844
relative viability ([5]; first compound 0.002 µM): 1.04
relative viability ([5]; first compound 0.006325 µM): 0.96
relative viability ([5]; first compound 0.02 µM): 1.35
relative viability ([5]; first compound 0.06325 µM): 0.343
relative viability ([5]; first compound 0.2 µM): 0.181
relative viability ([6]; first compound 0.002 µM): 0.972
relative viability ([6]; first compound 0.006325 µM): 0.928
relative viability ([6]; first compound 0.02 µM): 0.514
relative viability ([6]; first compound 0.06325 µM): 1.07
relative viability ([6]; first compound 0.2 µM): 0.315
relative viability ([7]; first compound 0.002 µM): 0.746
relative viability ([7]; first compound 0.006325 µM): 0.707
relative viability ([7]; first compound 0.02 µM): 0.61
relative viability ([7]; first compound 0.06325 µM): 0.771
relative viability ([7]; first compound 0.2 µM): 0.762
relative viability ([8]; first compound 0.002 µM): 0.964
relative viability ([8]; first compound 0.006325 µM): 0.852
relative viability ([8]; first compound 0.02 µM): 0.773
relative viability ([8]; first compound 0.06325 µM): 0.54
relative viability ([8]; first compound 0.2 µM): 0.492
relative viability ([9]; first compound 0.002 µM): 0.82
relative viability ([9]; first compound 0.006325 µM): 0.886
relative viability ([9]; first compound 0.02 µM): 0.851
relative viability ([9]; first compound 0.06325 µM): 0.152
relative viability ([9]; first compound 0.2 µM): 0.154
relative viability ([10]; first compound 0.002 µM): 1.26
relative viability ([10]; first compound 0.006325 µM): 1.31
relative viability ([10]; first compound 0.02 µM): 0.691
relative viability ([10]; first compound 0.06325 µM): 0.71
relative viability ([10]; first compound 0.2 µM): 0.259
relative viability ([11]; first compound 0.002 µM): 0.534
relative viability ([11]; first compound 0.006325 µM): 0.526
relative viability ([11]; first compound 0.02 µM): 0.311
relative viability ([11]; first compound 0.06325 µM): 0.11
relative viability ([11]; first compound 0.2 µM): 0.0992
relative viability ([12]; first compound 0.002 µM): 0.877
relative viability ([12]; first compound 0.006325 µM): 0.942
relative viability ([12]; first compound 0.02 µM): 0.95
relative viability ([12]; first compound 0.06325 µM): 0.495
relative viability ([12]; first compound 0.2 µM): 0.537
relative viability ([13]; first compound 0.002 µM): 0.899
relative viability ([13]; first compound 0.006325 µM): 0.854
relative viability ([13]; first compound 0.02 µM): 0.881
relative viability ([13]; first compound 0.06325 µM): 0.42
relative viability ([13]; first compound 0.2 µM): 0.262
relative viability ([14]; first compound 0.002 µM): 0.59
relative viability ([14]; first compound 0.006325 µM): 0.609
relative viability ([14]; first compound 0.02 µM): 0.529
relative viability ([14]; first compound 0.06325 µM): 0.255
relative viability ([14]; first compound 0.2 µM): 0.0672
relative viability ([15]; first compound 0.002 µM): 0.774
relative viability ([15]; first compound 0.006325 µM): 0.711
relative viability ([15]; first compound 0.02 µM): 0.588
relative viability ([15]; first compound 0.06325 µM): 0.751
relative viability ([15]; first compound 0.2 µM): 0.807
relative viability ([16]; first compound 0.002 µM): 0.841
relative viability ([16]; first compound 0.006325 µM): 0.76
relative viability ([16]; first compound 0.02 µM): 0.635
relative viability ([16]; first compound 0.06325 µM): 0.117
relative viability ([16]; first compound 0.2 µM): 0.128
relative viability ([17]; first compound 0.002 µM): 0.508
relative viability ([17]; first compound 0.006325 µM): 0.447
relative viability ([17]; first compound 0.02 µM): 0.0191
relative viability ([17]; first compound 0.06325 µM): 0.0086
relative viability ([17]; first compound 0.2 µM): 0.0122
relative viability ([18]; first compound 0.002 µM): 0.916
relative viability ([18]; first compound 0.006325 µM): 0.875
relative viability ([18]; first compound 0.02 µM): 1.01
relative viability ([18]; first compound 0.06325 µM): 0.131
relative viability ([18]; first compound 0.2 µM): 0.15
relative viability ([19]; first compound 0.002 µM): 0.553
relative viability ([19]; first compound 0.006325 µM): 0.584
relative viability ([19]; first compound 0.02 µM): 0.504
relative viability ([19]; first compound 0.06325 µM): 0.234
relative viability ([19]; first compound 0.2 µM): 0.228
relative viability ([20]; first compound 0.002 µM): 1.03
relative viability ([20]; first compound 0.006325 µM): 0.927
relative viability ([20]; first compound 0.02 µM): 0.589
relative viability ([20]; first compound 0.06325 µM): 0.168
relative viability ([20]; first compound 0.2 µM): 0.153
relative viability ([21]; first compound 0.002 µM): 1.09
relative viability ([21]; first compound 0.006325 µM): 0.908
relative viability ([21]; first compound 0.02 µM): 0.871
relative viability ([21]; first compound 0.06325 µM): 1.08
relative viability ([21]; first compound 0.2 µM): 0.957
